# Experimental data reported in ChEMBL document CHEMBL1201862, “PubChem BioAssay data set” (2004).
#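 Assay format: 96-well plates, 48-hour exposure. GI50 marks 50% less growth.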 The source made the active and inactive calls. No stated cut-off is given here; in the data, active = GI50 up to about 1.1 µM and inactive = higher.
# Experiments:
# Experiment in all cases: NCI-60 cell line screen, 48 h
# ACHN = tested on: ACHN
# BT-549 = tested on: BT-549
# COLO 205 = tested on: COLO 205
# DU-145 = tested on: DU-145
# Hs-578T = tested on: Hs-578T
# MCF7 = tested on: MCF7
# MDA-MB-231 = tested on: MDA-MB-231
# Malme-3M = tested on: Malme-3M
# NCI-H23 = tested on: NCI-H23
# NCI-H460 = tested on: NCI-H460
# NCI/ADR-RES = tested on: NCI/ADR-RES
# OVCAR-3 = tested on: OVCAR-3
# OVCAR-8 = tested on: OVCAR-8
# PC-3 = tested on: PC-3
# SN12C = tested on: SN12C
# TK-10 = tested on: TK-10
# UACC-257 = tested on: UACC-257
# UACC-62 = tested on: UACC-62
# M14 = tested on: M14
Compound,GI50 (ACHN),GI50 (BT-549),GI50 (COLO 205),GI50 (DU-145),GI50 (Hs-578T),GI50 (MCF7),GI50 (MDA-MB-231),GI50 (Malme-3M),GI50 (NCI-H23),GI50 (NCI-H460),GI50 (NCI/ADR-RES),GI50 (OVCAR-3),GI50 (OVCAR-8),GI50 (PC-3),GI50 (SN12C),GI50 (TK-10),GI50 (UACC-257),GI50 (UACC-62),GI50 (M14)
O=C1NC(=S)N/C1=C\c1cc2c(=O)c3ccccc3sc2s1,60.8 µM (inactive),35 µM (inactive),47.4 µM (inactive),> 100 µM (inactive),64.6 µM (inactive),35.8 µM (inactive),> 100 µM (inactive),> 100 µM (inactive),52.8 µM (inactive),64 µM (inactive),> 100 µM (inactive),54.1 µM (inactive),57.5 µM (inactive),72.1 µM (inactive),> 100 µM (inactive),97.7 µM (inactive),> 100 µM (inactive),29.4 µM (inactive),–
CCN1C(=O)C(=C/C=C/c2ccc(N(CC)CC)cc2)C(=O)N(CC)C1=S,> 100 µM (inactive),40.7 µM (inactive),> 100 µM (inactive),> 100 µM (inactive),> 100 µM (inactive),> 100 µM (inactive),> 100 µM (inactive),–,> 100 µM (inactive),> 100 µM (inactive),33.9 µM (inactive),18 µM (inactive),> 100 µM (inactive),72.4 µM (inactive),> 100 µM (inactive),> 100 µM (inactive),> 100 µM (inactive),87.5 µM (inactive),> 100 µM (inactive)
Cc1ccc(NC(=O)C(=O)CC(=O)c2sc(Nc3c(C)cccc3C)nc2C)cc1C,> 100 µM (inactive),> 100 µM (inactive),> 100 µM (inactive),> 100 µM (inactive),> 100 µM (inactive),> 100 µM (inactive),> 100 µM (inactive),–,> 100 µM (inactive),> 100 µM (inactive),> 100 µM (inactive),> 100 µM (inactive),> 100 µM (inactive),> 100 µM (inactive),> 100 µM (inactive),> 100 µM (inactive),> 100 µM (inactive),> 100 µM (inactive),> 100 µM (inactive)
O=c1c(-c2ccccc2)c(SCCN2CCCC2)n(-c2ccccc2)c(=S)n1-c1ccccc1,> 100 µM (inactive),> 100 µM (inactive),> 100 µM (inactive),> 100 µM (inactive),> 100 µM (inactive),> 100 µM (inactive),> 100 µM (inactive),> 100 µM (inactive),> 100 µM (inactive),> 100 µM (inactive),> 100 µM (inactive),–,> 100 µM (inactive),> 100 µM (inactive),> 100 µM (inactive),> 100 µM (inactive),> 100 µM (inactive),> 100 µM (inactive),> 100 µM (inactive)
CC(=O)N(C)c1cc(NCc2ccccc2)ccc1OCc1ccccc1,17.3 µM (inactive),20.6 µM (inactive),22.3 µM (inactive),17.1 µM (inactive),31.4 µM (inactive),17.9 µM (inactive),15.8 µM (inactive),16.1 µM (inactive),24.4 µM (inactive),17.9 µM (inactive),20.2 µM (inactive),16.6 µM (inactive),17.3 µM (inactive),–,17.5 µM (inactive),17.7 µM (inactive),17.3 µM (inactive),16.4 µM (inactive),22.1 µM (inactive)
O=c1c(Sc2c(SCSc3cnc4ccccc4c3Sc3c[nH]c4ccccc4c3=O)cnc3ccccc23)c[nH]c2ccccc12,> 100 µM (inactive),> 100 µM (inactive),> 100 µM (inactive),> 100 µM (inactive),62.8 µM (inactive),–,34.9 µM (inactive),–,> 100 µM (inactive),> 100 µM (inactive),> 100 µM (inactive),> 100 µM (inactive),> 100 µM (inactive),> 10 µM (inactive),> 100 µM (inactive),> 100 µM (inactive),> 100 µM (inactive),43.3 µM (inactive),> 100 µM (inactive)
C=CCN1CCC(OC(=O)C(O)(/C=C\CC)C2CCCC2)CC1 (configuration not stated),> 100 µM (inactive),> 100 µM (inactive),> 100 µM (inactive),> 100 µM (inactive),> 100 µM (inactive),> 100 µM (inactive),> 100 µM (inactive),> 100 µM (inactive),8.71 µM (inactive),–,> 100 µM (inactive),> 100 µM (inactive),> 100 µM (inactive),> 100 µM (inactive),> 100 µM (inactive),> 100 µM (inactive),0.525 µM (active),> 100 µM (inactive),> 100 µM (inactive)
CC(=O)Nn1c(=S)[nH]c2ccccc21,> 100 µM (inactive),> 100 µM (inactive),> 100 µM (inactive),> 100 µM (inactive),> 100 µM (inactive),> 100 µM (inactive),> 100 µM (inactive),> 100 µM (inactive),> 100 µM (inactive),> 100 µM (inactive),> 100 µM (inactive),–,> 100 µM (inactive),> 100 µM (inactive),> 100 µM (inactive),> 100 µM (inactive),> 100 µM (inactive),> 100 µM (inactive),> 100 µM (inactive)
Clc1cc2ncn(C3CCCO3)c2cc1Cl (configuration not stated),98.9 µM (inactive),19.5 µM (inactive),> 100 µM (inactive),> 100 µM (inactive),48.8 µM (inactive),> 100 µM (inactive),> 100 µM (inactive),> 100 µM (inactive),> 100 µM (inactive),–,99.8 µM (inactive),49.8 µM (inactive),77.8 µM (inactive),48.2 µM (inactive),> 100 µM (inactive),96.2 µM (inactive),> 100 µM (inactive),40.1 µM (inactive),> 100 µM (inactive)
O=C(CN1CCCC1)Nc1ccc2sc3ccccc3c(=O)c2n1,12.5 µM (inactive),25.3 µM (inactive),14 µM (inactive),25.9 µM (inactive),21.2 µM (inactive),27.2 µM (inactive),26.4 µM (inactive),–,24.2 µM (inactive),22 µM (inactive),15.5 µM (inactive),42.9 µM (inactive),16.8 µM (inactive),14.7 µM (inactive),16.4 µM (inactive),33 µM (inactive),> 10 µM (inactive),19.9 µM (inactive),24 µM (inactive)
COC(=O)[C@H](Cc1ccccc1)NP(=O)(OCCC#N)OCC1OC(n2cc(C)c(=O)[nH]c2=O)CC1N=[N+]=[N-] (some centres not stated),> 100 µM (inactive),> 100 µM (inactive),> 100 µM (inactive),> 100 µM (inactive),> 100 µM (inactive),> 100 µM (inactive),> 100 µM (inactive),> 100 µM (inactive),> 100 µM (inactive),> 100 µM (inactive),> 100 µM (inactive),–,> 100 µM (inactive),> 100 µM (inactive),> 100 µM (inactive),> 100 µM (inactive),> 100 µM (inactive),> 100 µM (inactive),> 100 µM (inactive)
